From patent US7456185B2, “Substituted quinazoline compounds useful as p38 kinase inhibitors” (Roche Palo Alto LLC, priority 2003, dated 2008)

melting point [°C] | SMILES
161.5 to 162.7 | OCC(O)CNc1ncc2cc(Oc3ccc(F)cc3F)ccc2n1 (centres unmarked) [Example 4, 3-[6-(2,4-Difluoro-phenoxy)-quinazolin-2-ylamino]-propane-1,2-diol]
173.9 to 177.1 | CS(=O)(=O)N1CCC(Nc2ncc3cc(Oc4ccc(F)cc4F)ccc3n2)CC1 [Example 6]
152.7 to 154.6 | CCOc1ccc2nc(NCC[S+](C)[O-])ncc2c1 (centres unmarked) [Example 11, (6-Ethoxy-quinazolin-2-yl)-(2-methanesulfinyl-ethyl)-amine]
110 to 112.9 | CCC(CO)(CO)Nc1ncc2cc(Oc3ccc(F)cc3F)ccc2n1 [Example 1, 2-[6-(2,4-Difluoro-phenoxy)-quinazolin-2-ylamino]-2-ethyl-propane-1,3-diol]
176.2 to 176.8 | OC1CCC(Nc2ncc3cc(Oc4ccc(F)cc4F)ccc3n2)CC1 (centres unmarked) [Example 8, 4-[6-(2,4-Difluoro-phenoxy)-quinazolin-2-ylamino]-cyclohexanol]
160 to 162.6 | CC(C)Nc1ncc2cc(Oc3ccc(F)cc3F)ccc2n1 [Example 2]
112.9 to 113.6 | OCCC(CCO)Nc1ncc2cc(Oc3ccc(F)cc3F)ccc2n1 [Example 3, 3-[6-(2,4-Difluorophenoxy)-quinazolin-2-ylamino]-pentane-1,5-diol]
160.1 to 161.5 | CS(=O)(=O)CCNc1ncc2cc(Oc3ccc(F)cc3F)ccc2n1 [Example 5]
